Values joined by “and” are separate entries in the source; they are usually repeats but may differ in a detail not shown here. Identical values can stand only once. Blank lines part the entries; values can stand above or below the molecule they belong to.
Columns and labels:
[1] = Optimising the candidate formulations: excipient effects on ketoprofen movement through cattle skin in vitro
[2] = Clinical study (disbudding): behaviour ethogram, mixed effect Poisson / negative binomial models; details: dehorned calves
Description: Calf behaviour was monitored before and after dehoming in suitable time periods. The day before dehoming, the behaviour of all 36 calves were monitored for two hours to record the baseline variation, which was taken as 0 hour observation. Next day after dehoming, behaviour was recorded at 2-4 hour, 4-8 hour, 8-12 hour, 24 hour and 48 hours. There were 12 behaviour parameters recorded, as follows: Head shaking, Ear flicking, Tail wagging. Head rubbing, lying, ruminating, neck extending, grooming, walking, vocalising, feeding and drinking.
The method used to identify those variables was Confirmatory Factor Analysis (CFA) within Structural Equation Modelling Framework (SEM).
Separate models were used for each of the observed animal behavioural traits (FIG. 19). A mixed effect Poisson model with an animal fitted as random intercepts and time as random slope, and unstructured error term for the residuals. Behaviours trait at baseline (time 0) was centred and added to the fixed effect part of the model (essentially turning the model into a random slope model too). […] Overdispersed models (also those with excess zeros) were refitted using a negative binomial model.
Experimental time was fitted as a categorical variable to derive estimated at each time point, time 2 hr was used as the reference category. Treatment was also fitted as categorical variable, placebo as reference category. […]

[3] = treated vs untreated cattle
Description: Blood samples were analysed for cortisol and biomarkers once the study was completed.
A preliminary analysis of the proteins identified was undertaken using Principal Component Analysis (PCA) within the MarkerView software package (FIG. 21). This analysis looked at a comparison of groups for all time points (FIG. 21a), a comparison of dehorning vs. sham (FIG. 21b) and a comparison of treatment vs. placebo (FIG. 21c).

[4] = Screening of NSAID and vehicle combinations: penetration through cattle skin in vitro (Table 13)
Description: Hair was removed using an electric clipper and the subcutaneous fat and musculature carefully trimmed away before the skin was cut into circular sections (approximately 2 cm diameter) using a metal wad punch, and placed in airtight ziplock bags, stored at −20° C. within 5 hr of slaughter.
The skin samples were defrosted immediately prior to use and mounted on Franz diffusion cells. […] A glass cover slip was applied to each donor chamber to prevent evaporation of the donor solution. Samples (200 μL) were collected at regular intervals from the receptor chambers via the sampling port and immediately replenished with equal volumes of fresh receptor solution. At the completion of each study, the diffusions cells were dismantled and the skin discs were rinsed and stored.

[5] = Solubility / precipitation of NSAIDs in the vehicles tested; details: vehicles screened
[6] = 10% Flunixin, vehicle KET65 (Cromollient-SCE-LQ-(MH), 100% Di-PPG2-Myreth-10-Adipate), sample time 6 hrs
[7] = 10% Flunixin, vehicle KET93: Isopronanol 50% IPN, 1-Ethyl-2-Pryrrolidone 45% EP, Menthol 50 ng/mL, Buffer/EVAP None, sample time 0.5 hrs
[8] = 10% Flunixin, vehicle KET93: Isopronanol 50% IPN, 1-Ethyl-2-Pryrrolidone 45% EP, Menthol 50 ng/mL, Buffer/EVAP None, sample time 2 hrs
[9] = 10% Flunixin, vehicle KET93: Isopronanol 50% IPN, 1-Ethyl-2-Pryrrolidone 45% EP, Menthol 50 ng/mL, Buffer/EVAP None, sample time 4 hrs
[10] = 10% Flunixin, vehicle KET93: Isopronanol 50% IPN, 1-Ethyl-2-Pryrrolidone 45% EP, Menthol 50 ng/mL, Buffer/EVAP None, sample time 6 hrs
[11] = 10% Flunixin, vehicle KET95: Isopronanol 50% IPN, 1-Ethyl-2-Pryrrolidone 45% EP, Menthol 50 ng/mL, Buffer/EVAP None, sample time 0.2 hrs
[12] = 10% Flunixin, vehicle KET95: Isopronanol 50% IPN, 1-Ethyl-2-Pryrrolidone 45% EP, Menthol 50 ng/mL, Buffer/EVAP None, sample time 0.5 hrs
[13] = 10% Flunixin, vehicle KET95: Isopronanol 50% IPN, 1-Ethyl-2-Pryrrolidone 45% EP, Menthol 50 ng/mL, Buffer/EVAP None, sample time 2 hrs
[14] = 10% Flunixin, vehicle KET95: Isopronanol 50% IPN, 1-Ethyl-2-Pryrrolidone 45% EP, Menthol 50 ng/mL, Buffer/EVAP None, sample time 4 hrs
[15] = 10% Flunixin, vehicle KET96: Isopronanol 50% IPN, Propylene glycol 45% PPG, Eucalyptus oil […] 1,8-cineole, Buffer/EVAP None, sample time not printed (sample KET1430, replicate 1)
[16] = Flunixin 10% in vehicle KET46: Ethanol 70% EthOH, Propylene glycol 30% PPG, terpene None, 0.1M citrate, sample time 6 hrs
[17] = Flunixin 10% in vehicle KET46: Ethanol 70% EthOH, Propylene glycol 30% PPG, terpene None, 0.1M citrate, sample time 8 hrs

SMILES: CCO [Ethanol, ethanol]
effect of excipient on ketoprofen/NSAID penetration through cattle skin [1]: significantly enhanced penetration compared to other alcohols

SMILES: CC(C)O [isopropanol]
effect of excipient on ketoprofen/NSAID penetration through cattle skin [1]: did not perform as well as ethanol

SMILES: CC(C(=O)O)c1cccc(C(=O)c2ccccc2)c1 (stereo not shown) [ketoprofen]
head shaking compared with the placebo group [2]: significantly different from the placebo group | effect on key biomarkers of pain and inflammation [3]: significantly affected key biomarkers of pain and inflammation

Concentration ([4]; 10% Flunixin, vehicle KET65 (Cromollient-SCE-LQ-(MH), 100% Di-PPG2-Myreth-10-Adipate), sample time 0.5 hrs): 0 ng/mL | Concentration ([4]; 10% Flunixin, vehicle KET65 (Cromollient-SCE-LQ-(MH), 100% Di-PPG2-Myreth-10-Adipate), sample time 2 hrs): 0 ng/mL | analysis conc ([4]; 10% Flunixin, vehicle KET65 (Cromollient-SCE-LQ-(MH), 100% Di-PPG2-Myreth-10-Adipate), sample time 4 hrs): 0.006 and 0.005 | analysis conc [4, 6]: 0.006 and 0.007 and 0.005 | Concentration [4, 7]: 96 ng/mL | analysis conc [4, 7]: 0.032 | Concentration [4, 8]: 102 ng/mL | analysis conc [4, 8]: 0.034 | Concentration [4, 9]: 543 ng/mL | analysis conc [4, 9]: 0.181 | Concentration [4, 10]: 579 ng/mL | analysis conc [4, 10]: 0.193 | Concentration ([4]; 10% Flunixin, vehicle KET94: Isopronanol 50% IPN, Propylene glycol 45% PPG, Eucalyptus oil […] 1,8-cineole, Buffer/EVAP None, sample time 2 hrs): 135 ng/mL | Concentration ([4]; 10% Flunixin, vehicle KET94: Isopronanol 50% IPN, Propylene glycol 45% PPG, Eucalyptus oil […] 1,8-cineole, Buffer/EVAP None, sample time 2 hrs, listed as Flunixin): 123 ng/mL | Concentration [4, 11]: 114 ng/mL | analysis conc [4, 11]: 0.038 | Concentration [4, 12]: 159 ng/mL and 237 ng/mL | analysis conc [4, 12]: 0.053 and 0.079 | analysis conc [4, 13]: 0.055 and 0.082 and 0.044 | analysis conc [4, 14]: 0.062 and 0.095 and 0.049 | Concentration [4, 15]: 60 ng/mL | analysis conc [4, 15]: 0.02 | Concentration ([4]; Flunixin 10% in vehicle KET46: Ethanol 70% EthOH, Propylene glycol 30% PPG, terpene None, 0.1M citrate, sample time 2 hrs): 0 ng/mL | Concentration ([4]; Flunixin 10% in vehicle KET46: Ethanol 70% EthOH, Propylene glycol 30% PPG, terpene None, 0.1M citrate, sample time 4 hrs): 0 ng/mL | Concentration [4, 16]: 36 ng/mL | analysis conc [4, 16]: 0.012 | Concentration [4, 17]: 36 ng/mL | analysis conc [4, 17]: 0.012 | analysis conc ([4]; Flunixin 10% in vehicle KET47: Ethanol 70% EthOH, Propylene glycol 30% PPG, Menthol 50 mg/mL, 0.1M citrate, sample time 0.5 hrs): 0.009 | Concentration ([4]; Flunixin 50%, vehicle KET38: Ethanol 50% EthOH, no co-solvent, Menthol 50 mg/mL, sample time 0.5 hrs, replicates 1-3): 0 ng/mL | Concentration ([4]; Flunixin 50%, vehicle KET38: Ethanol 50% EthOH, no co-solvent, Menthol 50 mg/mL, sample time 2 hrs, replicates 1-3): 0 ng/mL | Concentration ([4]; Flunixin 50%, vehicle KET38: Ethanol 50% EthOH, no co-solvent, Menthol 50 mg/mL, sample time 4 hrs, replicates 1-3): 0 ng/mL | Concentration ([4]; Flunixin 50%, vehicle KET38: Ethanol 50% EthOH, no co-solvent, Menthol 50 mg/mL, sample time 6 hrs, replicates 1-3): 0 ng/mL | Concentration ([4]; Flunixin 50%, vehicle KET38: Ethanol 50% EthOH, no co-solvent, Menthol 50 mg/mL, sample time 8 hrs, replicates 1-3): 0 ng/mL
SMILES: Cc1c(Nc2ncccc2C(=O)O)cccc1C(F)(F)F [flunixin, flunixin meglumine]
Concentration [4, 6]: 18 ng/mL and 21 ng/mL and 15 ng/mL | Concentration [4, 13]: 165 ng/mL and 246 ng/mL and 132 ng/mL | Concentration [4, 14]: 186 ng/mL and 285 ng/mL and 147 ng/mL | solubility in vehicles [5]: most soluble in the majority of vehicles examined

SMILES: CCCCCCCCCCCCCC(=O)OC(C)C [IPM, isopropyl myristate]
effect of excipient on ketoprofen/NSAID penetration through cattle skin [1]: proving the more effective
